{"source": "patent US5439930A", "about": "“Biologically active n-acylprolydipeptides having antiamnestic, antihypoxic and anorexigenic effects” (Russian-American Institute for New Drug Development, priority 1992, dated 1995)", "key": {"[1]": {"system": "phenazepam withdrawn male albino rats", "assay": "Pentylenetetrazol kindling seizures during phenazepam withdrawal", "type": "in vivo", "experimental": "(§1) The influence of Compound I on withdrawal syndrome caused by the interruption of chronic administration of benzodiazepine tranquilizer phenazepam (T. A. Voronina et al., In Fenazepam; A. V. Bogatsky, Ed.; Naukova dumka Publishers: Kiev, 1982; pp. 67-169) was studied in experiments on male albino rats weighing 190-200 g at the beginning and 300-350 g at the end of the experiment.\n(§2) Phenazepam (2 mg/kg intraperitoneally) or saline (control group of rats) were given once daily for 57 days. The withdrawal syndrome occurred 24-72 hours after the last injection. The withdrawal syndrome in rats consisted in \"anxiogenic-like\" state aggressiveness and accelerated development of kindled seizures caused by pentylentetrazol. Compound I was administered to the withdrawn rats in doses of 0.5 mg/kg intraperitoneally 15 minutes prior to testing.\nThe seizure reactions of rats were studied using chemical kindling (C.R. Mason et al., Epilepsia, 13, 663-674 (1972); R. M. Post et al., Handbook of Biological Psychiatry, Part IV, No. 7, Marcel-Dekker (1981) pp. 609-651) produced by small doses of pentylene-tetrazol (35 mg/kg, intraperitoneally) administrated 24, 48 and 72 h after phenazepam withdrawal. The degree of seizures was evaluated by 4 points: tremor (1 point); jerk (2 point); clonic seizures (3 points); tonic seizures and death (4 points).\nOur experiments pointed out that the pentylenetetrazol seizures were more pronounced in phenazepam withdrawn rats than in the control one. Compound I diminished the degree of kindling provoked by pentylenetetrazol (Table 14)."}, "outbred male mice": {"system": "outbred male mice", "assay": "Gross behavior and acute toxicity", "type": "in vivo", "experimental": "Compound I was checked for gross behavior and acute toxicity in outbred male mice (18-22 g).\nIn the dose of 1000 mg/kg compound I caused excitement in 50% of animals. In the dose of 5000 mg/kg i.p. compound I caused death in 50% of animals."}, "[2]": {"system": "active avoidance learning, rats", "assay": "Active avoidance learning in shuttle-box test", "type": "in vivo", "description": "The influence of Compound I on the active avoidance learning was studied in shuttle-box test (Ugo Basile, Italy). The conditioned reflex of active avoidance had been developed for 5 days with 50 daily trials for each rat. The learning task consisted in the rats' avoiding of the electric shock applied through the cage floor directly after sound. Rats could avoid the shock by moving into another compartment of the cage, but only while the sound was present (3 sec.)."}, "24-month Wistar rats": {"system": "24-month Wistar rats", "assay": "Locomotor activity and habituation in aged rats (Optovarimex)", "type": "in vivo", "experimental": "The influence of Compound I on age-related mental decline was studied in experiments on 24-month Wistar rats. The substance was administered chronically in the dose of 0.1 mg/kg/day during 24 days, intraperitoneally before the testing and 14 days during testing.\nRegistration of the locomotor activity in the Optovarimex multichannel analyzer has shown that Compound I increased the initial horizontal activity being administered chronically. […] This test is suitable for the study of nootropics. In the control group the coefficient of the habituation was 0.29."}, "[3]": {"system": "rat's offspring after prenatal alcoholization", "assay": "Open field locomotor activity and habituation of offspring after prenatal alcoholization", "type": "in vivo, rats", "experimental": "The cognitive impairment in the rat's offspring was provoked by prenatal alcoholization or prenatal hypoxia. Prenatal alcoholization was achieved by peroral administration of 5 g/kg/day (25% solution) ethanol to pregnant female rats during whole pregnancy. To achieve prenatal hypoxia the rats on the 15th day of pregnancy were placed into hypobaric barometric chamber (the \"elevating\" up 8500 m altitude; exposition for 2 hours).\nThe treatment of the offspring was performed from 8th day to 20th day. Compound I was administered in the dose of 0.1 mg/kg/day subcutaneously. The testing was performed on two-month old rats.\nChronic postnatal administration of Compound I restored the normal course of the habituation (Table 10)."}, "outbred albino mice": {"system": "outbred albino mice", "assay": "Hypobaric hypoxia survival (barometric chamber, 11,000 m)", "type": "in vivo", "conditions": "0.5 mg/kg 15 minutes before hypoxia, 1 hour exposition", "experimental": "The protective effect of Compound I in hypoxia was assessed using the barometric chamber by \"elevating\" of the outbred albino mice (18-22 g) to the altitude of 11,000 m at a speed of 1000 m/min. After 1 hour exposition the percentage of surviving mice after 0.9% saline pretreatment was 15%."}, "[4]": {"assay": "Body weight and food consumption", "type": "in vivo, rats", "experimental": "The influence of Compound I on body weight and food consumption was studied in the experiments on the outbred rats. The substance, administered during 3 weeks in dose of 0.1 mg/kg/day intraperitoneally slowed the dynamics of weight increase in comparison to control: the increase of the weight (in %% to the initial one) was 12% in the treated group and 24% in the control group.\nThe amount of the consumed chow checked between 19th and 21st days was less for treated animals (39.5 g/day/rat) than for control ones (68.6 g/day/rat)."}, "[5]": {"system": "phenazepam withdrawn male albino rats", "assay": "Conflict situation test during phenazepam withdrawal", "type": "in vivo", "conditions": "0.5 mg/kg i.p. 15 minutes prior to testing; 24 hours after phenazepam withdrawal", "experimental": "as §1, §2\nThe conflict situation test was used to reveal the \"anxiety\" of rats (J. R. Vogel et al., Psychopharmacologia, 21, 1-7 (1971)). This experiment involved previous training of water deprivated rats to drink water from a trough. Next day electrical stimulation was given by a 0.5 mA electric current through the trough. A conflict situation was created by clashing of the two different reflexes (drinking and self-defense).\nThis behavior in the conflict situation test can be considered as \"anxiogenic-like\" one. […]"}}, "note": "Where a SMILES comes first, the peptide text is derived from it. The star is where a group is joined. PhAc = O=C(Cc1ccccc1)*"}
{"smiles": "CCOC(=O)CNC(=O)[C@@H]1CCCN1C(=O)Cc1ccccc1", "note": "[Compound I, N-phenacetyl-L-prolylglycine ethyl ester] (PhAc-Pro-Gly-OEt)", "values": [{"measurement": "Seizure Reactions in Points (M ± m)", "setting": "[1]; 24 h after phenazepam withdrawal, pentylenetetrazol 35 mg/kg i.p., 0.5 mg/kg i.p.", "value": "0.25 ± 0.12", "unit": "points"}, {"measurement": "Seizure Reactions in Points (M ± m)", "setting": "[1]; 48 h after phenazepam withdrawal", "value": "0.87 ± 0.1", "unit": "points"}, {"measurement": "Seizure Reactions in Points (M ± m)", "setting": "[1]; 72 h after phenazepam withdrawal", "value": "0.5 ± 0.24", "unit": "points"}, {"measurement": "Stimulating effect of amphetamine", "setting": "outbred male mice; 25 mg/kg", "value": "diminished the stimulating effect of amphetamine"}, {"measurement": "Rectal temperature", "setting": "outbred male mice; 1-10 mg/kg i.p.", "value": "did not change rectal temperature"}, {"measurement": "Spontaneous motor activity", "setting": "outbred male mice; 1-10 mg/kg i.p.", "value": "neither stimulated nor depressed the spontaneous motor activity"}, {"measurement": "Stimulating effect of amphetamine on motor activity", "setting": "outbred male mice; 1-10 mg/kg i.p.", "value": "did not enhance the stimulating effect of amphetamine"}, {"measurement": "Excitement, % of animals", "setting": "outbred male mice; 1000 mg/kg", "value": 50, "unit": "%"}, {"measurement": "Death, % of animals", "setting": "outbred male mice; 5000 mg/kg i.p.", "value": 50, "unit": "%"}, {"measurement": "Lethality at 24 hours", "setting": "outbred male mice; 500-3000 mg/kg i.p.", "value": "did not cause lethality"}, {"measurement": "General condition (gross behavior)", "setting": "outbred male mice; up to the dose of 500 mg/kg", "value": "did not disturb the general condition"}, {"measurement": "Motor coordination (rota rod test)", "setting": "outbred male mice; up to the dose of 500 mg/kg", "value": "did not change motor coordination"}, {"measurement": "Percentage of the rats reached the stable avoidance", "setting": "[2]; day 1 of learning, 0.1 mg/kg daily i.p. 14 days before and during learning", "value": 0}, {"measurement": "Percentage of the rats reached the stable avoidance", "setting": "[2]; day 2 of learning, 0.1 mg/kg daily i.p.", "value": 15}, {"measurement": "Percentage of the rats reached the stable avoidance", "setting": "[2]; day 3 of learning, 0.1 mg/kg daily i.p.", "value": 43}, {"measurement": "Percentage of the rats reached the stable avoidance", "setting": "[2]; day 4 of learning, 0.1 mg/kg daily i.p.", "value": 57}, {"measurement": "Percentage of the rats reached the stable avoidance", "setting": "[2]; day 5 of learning, 0.1 mg/kg daily i.p.", "value": 67}, {"measurement": "Coefficient of habituation (ratio - 5th min/1st min)", "setting": "24-month Wistar rats; 0.1 mg/kg/day i.p. chronically", "value": 0.03}, {"measurement": "Locomotor activity (counts)", "setting": "24-month Wistar rats; 1st min. of registration, 0.1 mg/kg/day i.p. chronically", "value": 422, "unit": "counts"}, {"measurement": "Locomotor activity (counts)", "setting": "24-month Wistar rats; 5th min. of registration", "value": 13, "unit": "counts"}, {"measurement": "Number of horizontal movements", "setting": "[3]; day 1 of observation, chronic postnatal administration", "value": 8.2}, {"measurement": "Number of horizontal movements", "setting": "[3]; day 5 of observation", "value": 3.7}, {"measurement": "Coefficient of Habituation", "setting": "[3]; open field", "value": 0.45}, {"measurement": "Percentage of surviving mice", "setting": "outbred albino mice", "value": 43.7, "unit": "%"}, {"measurement": "Increase of the weight (in %% to the initial one)", "setting": "[4]; 0.1 mg/kg/day i.p. during 3 weeks", "value": 12, "unit": "%"}, {"measurement": "Amount of the consumed chow", "setting": "[4]; between 19th and 21st days, 0.1 mg/kg/day i.p.", "value": 39.5, "unit": "g/day/rat"}, {"measurement": "The amount of the Punishment Response", "setting": "[5]", "value": "48.40 ± 12.39"}]}
